Values joined by “and” are separate entries in the source; they are usually repeats but may differ in a detail not shown here. Equal values may be shown once. Inconclusive results are not listed.
Tested on: nude mice, LX-1 lung xenograft intrarenal, tumor weight T/C
Assay: NCI In Vivo Anticancer Drug Screen. Data for tumor model Human Lung LX-1 Xenograft (intrarenal inoculation) in NU/NU Swiss (nude) mice
Conditions: endpoint: mean tumor weight change, higher = larger tumour
Method in brief: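 In vivo, transplantable tumor; compound vs vehicle arms; tumor size measured; value = T/C.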

[1] = dose: 1.0 mg/kg/injection, schedule: Q01DX010 (sc), vehicle: saline

COc1cc([C@@H]2c3cc4c(c(O)c3C[C@H]3COC(=O)[C@@H]32)OCO4)cc(OC)c1O
T/C (dose: 0.06 mg/kg/injection, schedule: Q01DX010 (sc), vehicle: saline): 97 % of control
T/C (dose: 0.12 mg/kg/injection, schedule: Q01DX010 (sc), vehicle: saline): 91 % of control
T/C (dose: 0.25 mg/kg/injection, schedule: Q01DX010 (sc), vehicle: saline): 74 % of control
T/C (dose: 0.5 mg/kg/injection, schedule: Q01DX010 (sc), vehicle: saline): 205 % of control
T/C [1]: 76 % of control

COc1ccc(CC2C(=O)NC(C)C(=O)N(C)C3Cc4ccc(cc4)Oc4cc(ccc4O)CC(C(=O)NC(C)C(=O)NC(C)C(=O)N2C)N(C)C3=O)cc1 (stereo not given)
T/C (dose: 4.0 mg/kg/injection, schedule: Q04DX003 (sc), vehicle: saline with Tween-80): 61 % of control
T/C (dose: 8.0 mg/kg/injection, schedule: Q04DX003 (sc), vehicle: saline with Tween-80): 25 % of control
T/C (dose: 16.0 mg/kg/injection, schedule: Q04DX003 (sc), vehicle: saline with Tween-80): 34 % of control
T/C (dose: 32.0 mg/kg/injection, schedule: Q04DX003 (sc), vehicle: saline with Tween-80): 27 % of control

C=C1C(=O)C23[C@H](O)C1CC[C@H]2[C@]12COC3(O)[C@@H](O)[C@@H]1C(C)(C)CC[C@@H]2O
T/C (dose: 18.75 mg/kg/injection, schedule: Q04DX003 (sc), vehicle: Klucel (hydroxypropylcellulose) (HPC)): 105 % of control
T/C (dose: 37.5 mg/kg/injection, schedule: Q04DX003 (sc), vehicle: Klucel (hydroxypropylcellulose) (HPC)): 49 % of control

CCCCCC(=O)O[C@]1(C(C)=O)CC[C@H]2[C@@H]3CCC4=CC(=O)CC[C@]4(C)[C@H]3CC[C@@]21C
T/C (dose: 300.0 mg/kg/injection, schedule: Q04DX003 (sc), vehicle: Klucel (hydroxypropylcellulose) (HPC)): 91 % of control
T/C (dose: 600.0 mg/kg/injection, schedule: Q04DX003 (sc), vehicle: Klucel (hydroxypropylcellulose) (HPC)): 112 % of control
T/C (dose: 1200.0 mg/kg/injection, schedule: Q04DX003 (sc), vehicle: Klucel (hydroxypropylcellulose) (HPC)): 103 % of control
T/C (dose: 2400.0 mg/kg/injection, schedule: Q04DX003 (sc), vehicle: Klucel (hydroxypropylcellulose) (HPC)): 84 % of control

CC12CCC3C(CCC4CC(OC(=O)Cc5ccc(N(CCCl)CCCl)cc5)CCC43C)C1CCC(=O)N2 (stereo not given)
T/C (dose: 25.0 mg/kg/injection, schedule: Q04DX003 (sc), vehicle: saline with Tween-80): 43 % of control and 66 % of control
T/C (dose: 200.0 mg/kg/injection, schedule: Q04DX003 (sc), vehicle: saline with Tween-80): 8 % of control and 9 % of control

CCC(C)Nc1ccc(N)cc1 (stereo not given)
T/C (dose: 9.0 mg/kg/injection, schedule: Q04DX003 (sc), vehicle: Klucel (hydroxypropylcellulose) (HPC)): 80 % of control
T/C (dose: 18.0 mg/kg/injection, schedule: Q04DX003 (sc), vehicle: Klucel (hydroxypropylcellulose) (HPC)): 104 % of control

CS(=O)(=O)OCCCCOS(C)(=O)=O
T/C (dose: 25.0 mg/kg/injection, schedule: Q01DX010 (sc), vehicle: saline with Tween-80): 41 % of control

CCCCc1ccc(-n2c(C)c(COC(=O)NC)c(COC(=O)NC)c2C)cc1
T/C (dose: 12.5 mg/kg/injection, schedule: Q01DX010 (sc), vehicle: Klucel (hydroxypropylcellulose) (HPC)): 111 % of control
T/C (dose: 25.0 mg/kg/injection, schedule: Q01DX010 (sc), vehicle: Klucel (hydroxypropylcellulose) (HPC)): 92 % of control
T/C (dose: 50.0 mg/kg/injection, schedule: Q01DX010 (sc), vehicle: Klucel (hydroxypropylcellulose) (HPC)): 100 % of control
T/C (dose: 100.0 mg/kg/injection, schedule: Q01DX010 (sc), vehicle: Klucel (hydroxypropylcellulose) (HPC)): 104 % of control

OC(C1CO1)C(O)C1CO1 (stereo not given)
T/C [1]: 73 % of control
T/C (dose: 2.0 mg/kg/injection, schedule: Q01DX010 (sc), vehicle: saline): 66 % of control

NC(=O)c1ccc[n+](Cc2c(Cl)cccc2Cl)c1
T/C (dose: 50.0 mg/kg/injection, schedule: Q04DX003 (sc), vehicle: saline): 115 % of control
T/C (dose: 100.0 mg/kg/injection, schedule: Q04DX003 (sc), vehicle: saline): 83 % of control
T/C (dose: 200.0 mg/kg/injection, schedule: Q04DX003 (sc), vehicle: saline): 90 % of control

OCC1OC(n2cnc3c(=S)nc[nH]c32)C(O)C1O (stereo not given)
T/C (dose: 100.0 mg/kg/injection, schedule: Q01DX010 (sc), vehicle: saline): 86 % of control
T/C (dose: 300.0 mg/kg/injection, schedule: Q04DX003 (sc), vehicle: saline): 75 % of control
T/C (dose: 600.0 mg/kg/injection, schedule: Q04DX003 (sc), vehicle: saline): 99 % of control
T/C (dose: 1200.0 mg/kg/injection, schedule: Q04DX003 (sc), vehicle: saline): 124 % of control
T/C (dose: 2400.0 mg/kg/injection, schedule: Q04DX003 (sc), vehicle: saline): 65 % of control

Nc1n[n+](-c2ccccc2)no1
T/C (dose: 37.5 mg/kg/injection, schedule: Q04DX003 (sc), vehicle: water): 87 % of control
T/C (dose: 75.0 mg/kg/injection, schedule: Q04DX003 (sc), vehicle: water): 89 % of control

CC(C)[C@](O)(C(=O)OCC1=CCN2CC[C@@H](O)[C@@H]12)[C@H](C)O
T/C (dose: 150.0 mg/kg/injection, schedule: Q04DX003 (sc), vehicle: water): 80 % of control
T/C (dose: 300.0 mg/kg/injection, schedule: Q04DX003 (sc), vehicle: water): 91 % of control
T/C (dose: 600.0 mg/kg/injection, schedule: Q04DX003 (sc), vehicle: water): 82 % of control
T/C (dose: 1200.0 mg/kg/injection, schedule: Q04DX003 (sc), vehicle: water): 70 % of control
